One assay concerns AKT signaling pathway. Kind of assay: Western blotting of p-AKT and t-AKT in primary cortical neuron cells. Conditions: 10 min at 37° C., Vehicle = 100, n = 3. The assay is classed as cell-based, mouse. The protocol: (§1) N171-82Q WT male mice were mated with female B6C3F1/J hybrid mice. B6C3F1/J mice 18 days after pregnancy were anesthetized with isoflurane and dissected to remove embryos, which were then placed in a 10 cm Petri dish containing Leibovitz's buffer. The head of the embryo was cut off, and the brain was peeled off to obtain the whole mouse brain, which was then placed in a new 10 cm Petri dish containing Leibovitz's buffer. The neurocortex of the brain was separated and placed in a 15 mL centrifuge tube containing 3 mL Leibovitz's buffer. The centrifuge tube was centrifuged at 1000 rpm for 1 minute, and the Leibovitz's buffer was gently removed from the centrifuge tube, and then 750 μL of 0.25% trypsin-EDTA and 75 μL of 0.1% DNase (2000 U/mL) were added to digest at 37° C. for 15 min. 750 μL of DMEM medium containing 5% FBS was added to stop the digestion. The cells were mixed well, and centrifuged at 1000 rpm for 5 minutes. Trypins/DNase mixture was removed, and 750 μL of Neurobasal medium (B-27, Glutamax, P/S) was added. The cells were mixed by gently pipetting with a pipette for 30 times. The cell suspension was filtered with a 40 µm filter and transferred to another new 50 mL centrifuge tube. 10 μL of the cell suspension was added to 90 μL of DMEM (diluted 10 times), and 10 μL of the liquid mixture was placed on a hemocytometer so that the suspension filled between the cover slip and the counting plate for counting. The cells in the four large grids of the plate were counted, wherein for the cells across the line, only the cells on the left and upper side lines were counted. The following formulas were used:
(§2) Number of cells/mL=total number of cells in the four large grids/4×10^4/mL
(§3) Total number of cells/mL=total number of cells in the four large grids/4×10^4/mL×dilution factor.
(§4) After counting, the cells were diluted with Neurobasal selection medium so that 1 mL of Neurobasal culture medium contained 0.5×10^6 cells.
(§5) 200 μL of PDL solution previously heated in a 37° C. water bath was added to each well of a 6-well plate, and incubated at 37° C. overnight to allow PDL to evenly coat the well plate. The PDL solution was absorbed and the plate was washed twice with PBS. Before use, the PBS remaining on the plate was absorbed and the cover was opened to dry the plate in a super clean bench. 2 mL of cell suspension was added to each well (37° C., 5% CO2), and the cells were cultured until adherence. The culture medium was replaced and the culture continued for 3 days, and then the growth status of neurons was observed. Every other 3 days, half of the medium was removed and replaced with fresh complete medium. The culture continued until the primary cortical neuron cells mature (usually mature on the 14th day of culture).
(§6) After the primary cortical neuron cells have matured, appropriate amount of freshly prepared culture medium was added until final volume in each well was 2 mL. The experiment included a blank control group (Vehicle), a positive control group BDNF (10 ng/mL), a control compound group (500 nM), and 6 test compound groups (500 nM). Three repeats were set for each dose. After incubating at 37° C. for 10 min, the culture solution was discarded and the cells were washed with pre-chilled PBS, and then 40 μL of pre-chilled lysate (RIPA buffer 10 mL and protease and phosphatase inhibitor 100 μL) was added to each well for lysis on ice for 30 min. After lysis, the cell was crushed by ultrasonic cell crusher, centrifuged at 14000 rpm for 20 min at 4° C. The supernatant was transferred to a new 1.5 mL centrifuge tube to extract protein. Western blotting experiments were used to detect the protein levels of (A) p-TrkB and t-TrkB; (B) p-AKT and t-AKT.
(§7) The software Sigmaplot 13.0 was used for statistical analysis of the data, and the data of each group was expressed as mean±standard error (x±SEM). […]
On the technique in general: A western blot detects proteins with antibodies after separation by electrophoresis.

For the next assay, the target named is T1, TrkB receptor (Mus musculus, UniProt P15209).
T1 construct: The culture continued until the primary cortical neuron cells mature; endogenous in cells; host or cells: primary cortical neurons from E18 mouse embryos (N171-82Q WT male x B6C3F1/J female)
Put plainly: Western blotting of p-TrkB and t-TrkB in primary cortical neuron cells. Conditions: for Relative intensity of p-TrkB/t-TrkB protein: 10 min at 37° C., Vehicle = 100, n = 3. The assay is classed as cell-based. The protocol: as §1, §2, §3, §4, §5, §6, §7

In the next assay the test system is Phospho-Akt S473. Kind of assay: ELISA analysis of Phospho-Akt S473 in primary cortical neuron cells. Conditions: 10 min at 37° C. The class given is cell-based, mouse. The protocol:
The primary cortical neuron cells were cultured in the same way as in Example 21, and after maturity, appropriate amount of freshly prepared culture medium was added until final volume in each well was 2 mL. The experiment included a blank control group (Vehicle), a positive control group BDNF (10 ng/mL), a control compound group (500 nM), and 6 test compound groups (500 nM). Three repeats were set for each dose. After incubating at 37° C. for 10 min, the culture solution was discarded and the cells were washed with pre-chilled PBS, and then 40 μL of pre-chilled lysate (RIPA buffer 10 mL and protease and phosphatase inhibitor 100 μL) was added to each well for lysis on ice for 30 min. After lysis, the cell was crushed by ultrasonic cell crusher, centrifuged at 14000 rpm for 20 min at 4° C. The supernatant was transferred to a new 1.5 mL centrifuge tube to extract protein. The p-Akt ELISA experiment quantitatively detected the intracellular p-Akt protein level.
A series of p-Akt standard solutions with different concentrations were prepared, and the absorbance value was measured to make a standard curve. Phospho-Akt1 (Ser473) sandwich ELISA kit was purchased from Cell Signaling Technology (catalog number 7160). The antibody was coated in a 96-well plate at 4° C. overnight and was washed. The coated plate was blocked with 2% bovine serum albumin (BSA), and after sufficient washing, 100 μL of sample diluent (supplied in the kit) was added to each well to dilute the extracted protein. The plate was incubated overnight at 4° C. After washing 4 times with 200 μL of washing buffer (supplied in the kit), 100 μL/well of detection antibody was added and the plate was incubated at 37° C. for 1 hour. After 4 washes, 100 μL of HRP-conjugated secondary antibody (supplied in the kit) was added and the plate was incubated at 37° C. for 30 minutes. After the final wash, 100 μL of TMB substrate was added to each well and the plate was incubated at 37° C. for 10 minutes. TMB was use as a substrate to detect the signal, since TMB can be oxidized to produce a blue solution. The reaction was stopped by adding 100 μL/well stop solution, and the test result can remain stable within one hour after the stop of the reaction. The value of each well at 450 nm and 650 nm was detected using a microplate reader. The optical density (OD) was determined by subtracting the reading at 650 nm (disturbance from the solution itself) from the reading at 450 nm. According to the OD value corresponding to the standard curve, the p-Akt concentration in each well was obtained.
the data of each group was expressed as mean standard error (x±SEM). The ratio of the detection results of each positive control group (BNDF), control compound group (the same control compound as in Example 21) and each test compound group to the blank control group was used as an indicator to compare the p-Akt test results of the positive control group, control compound group, and each test compound group. One-way ANOVA and LSD post-hoc test were used to compare the measurement data among multiple groups, and P<0.05 was considered statistically significant.

Assay [1] has as its system rats with permanent cerebral ischemia. Put plainly: Cerebral infarction volume by TTC staining in rats with permanent cerebral ischemia. The assay is classed as in vivo, SD rats. Conditions: 0.078 mg/kg intravenous, after 7 days of ischemia. The procedure:
(§8) SD rats, male, about 220-250 g, were provided by the Experimental Animal Center of Medical College of Xi'an Jiaotong University. Rats were randomly divided into groups of 14 animals/group. The experiment included a sham group, a model group, a positive control Edaravone group and test compound groups 1-5.12 hours before the operation, the rats were fasted and were free to drink water, and then used for the modeling method of middle cerebral artery occlusion with thread plug. The rats were fixed on a wooden board after anesthesia, the common carotid artery was ligated proximally, the external carotid artery was ligated distally, and the main internal carotid artery into skull was retained. A ligature line was reserved at the bifurcation of the internal carotid artery for temporarily clamping the distal end of the internal carotid artery using an arterial clip. A 3-0 nylon thread with a length of 5 cm and a spherical shape with a diameter of 0.3 mm at the tip was inserted into the common carotid artery through a small incision at the bifurcation. The arterial clamp was loosened, and the thread plug was slowly advanced to 18˜20 mm. When there was resistance, the progress of the thread was stopped. At this time, the nylon thread plug entered the middle artery and blocked the blood flow, and then the ischemic phase began. The skin was sutured. In the sham operation group, the same procedure was executed, except that no thread plug was inserted.
(§9) Administering was performed at 0 h, 3 h, 6 h and 12 h after ischemia, and then administering was performed once a day for 7 consecutive days. The test compound was prepared into a 4 mg/mL solution with 1% CMC-Na solution and administered by gavage. The edaravone group received an intravenous dose of 0.078 mg/kg.
3) Percentage of cerebral infarction volume after 7 days of ischemia: TTC staining was used to observe the infarct area.
The rats in each group were sacrificed by spinal dislocation […]. The brain tissue was quickly peeled off and placed in the refrigerator at −20° C. to freeze to an appropriate hardness to remove the olfactory bulb, cerebellum and low brain stem. Continuous coronary slices were performed at 1 mm intervals, to obtain a total of 5 slices. The slices were placed in 0.5% triphenyltetrazolium chloride (TTC) in phosphate buffer (pH=7.4) and incubated in a 37° C. incubator without light for 15 min, and then fixed in paraformaldehyde and observed (fixed time should be within 24 h). The normal brain tissue is rosy red, and infarcted brain tissue is pale. After taking the picture, the slice was scanned to save the image. The area of cerebral infarction and the total area of slices were calculated using Image J processing software.
Cerebral infarction volume (%)=(volume of the contralateral hemisphere of the operation−volume of the uninfarcted portion of the hemisphere of the occlusion)/volume of the contralateral hemisphere of the operation×100%
(§10) (2) Statistical analysis of data: SPSS18.0 statistical software was used for statistical analysis and the data of each group was expressed as the mean standard error (x±SEM). One-way ANOVA and multiple comparisons between groups were used to compare the averages of measurement data among multiple groups. Rank score test was used for behavioral grading data, and Kaplan-Meier method was used for mortality. P<0.05 was considered statistically significant.

Assay [2] has the same test system. Put plainly: Neurobehavioral scoring in rats with permanent cerebral ischemia (MCAO thread plug). The class given is in vivo, SD rats. Conditions: 0.078 mg/kg intravenous. The procedure:
as §8, §9
2) The rats were lifted at its tail about 1 foot off the ground to observe the condition of both forelimbs. The rats were placed on a level ground and pushed on both shoulders to observe the difference in resistance on both sides. The rats were placed on the ground to observe the walking. The assessment was conducted using a five-grade four-point scoring method (0 to 4 points). The higher the score, the more severe the neurobehavioral damage.
0 point: the behavior is completely normal;
1 point: when the rat is lifted at its tail off the ground, the forelimb on the opposite side of the operation rotates and folds inwardly.
2 points: when the rat is placed on a level ground and pushed on both shoulders to observe the difference in resistance on both sides, the resistance on the opposite side of the operation reduces;
3 points: when the rat is placed on the ground to the walking, it circles around the opposite side of the operation;
4 points: The injury is so severe that the rat is unable to move independently.
as §10

T1 sequence (P15209 32-821): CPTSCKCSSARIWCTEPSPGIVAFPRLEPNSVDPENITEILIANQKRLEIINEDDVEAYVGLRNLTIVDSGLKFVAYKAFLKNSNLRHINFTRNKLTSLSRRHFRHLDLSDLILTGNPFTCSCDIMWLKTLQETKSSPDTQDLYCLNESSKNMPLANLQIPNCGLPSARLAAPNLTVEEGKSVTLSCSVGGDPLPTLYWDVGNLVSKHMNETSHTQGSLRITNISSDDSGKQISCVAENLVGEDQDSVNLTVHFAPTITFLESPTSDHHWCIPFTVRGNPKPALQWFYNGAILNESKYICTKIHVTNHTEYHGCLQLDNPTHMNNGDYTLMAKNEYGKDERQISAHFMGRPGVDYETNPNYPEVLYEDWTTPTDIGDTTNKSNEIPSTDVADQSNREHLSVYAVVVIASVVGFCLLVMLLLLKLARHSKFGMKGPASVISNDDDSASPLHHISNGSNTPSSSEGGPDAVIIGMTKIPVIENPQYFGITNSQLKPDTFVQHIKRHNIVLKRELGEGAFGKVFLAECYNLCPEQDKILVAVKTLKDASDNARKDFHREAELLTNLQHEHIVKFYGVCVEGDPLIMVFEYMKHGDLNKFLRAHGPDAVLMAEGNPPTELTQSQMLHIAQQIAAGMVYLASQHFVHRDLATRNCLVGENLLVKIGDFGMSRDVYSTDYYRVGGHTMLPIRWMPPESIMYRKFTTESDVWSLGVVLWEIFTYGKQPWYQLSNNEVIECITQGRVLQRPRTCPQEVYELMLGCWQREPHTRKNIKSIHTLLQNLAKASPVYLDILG

On to `O=c1cc(-c2ccc(N3CCOCC3)cc2)oc2c(O)c(O)ccc12` [Control compound, reference compound], for which, in the assay on AKT signaling pathway (500 nM), the “Relative intensity of p-AKT/t-AKT protein” value came out at 147.748 ± 4.832. Besides, the “Relative intensity of p-TrkB/t-TrkB protein” value on TrkB receptor (500 nM) was determined as 138.890 ± 15.547. Further, the “Relative content of p-Akt protein (ELISA, ratio to blank control group)” value in the assay with Phospho-Akt S473 (500 nM) stood at 138.33±2.08%.

For `CC1=NN(c2ccccc2)C(=O)C1` [Edaravone, reference compound], the “Volume percentage of cerebral infarction” value in assay [1] came out at 33.50 ± 7.21%. The “Neurobehavioral score (0 to 4 points)” value in assay [2] (6 h after ischemia) was determined as 2 ± 0.18; in assay [2] (1 d after ischemia), 2.36 ± 0.29; in assay [2] (2 d after ischemia), 2.89 ± 0.31; in assay [2] (3 d after ischemia), 2.38 ± 0.37; in assay [2] (4 d after ischemia), 2 ± 0.33; in assay [2] (5 d after ischemia), 2.14 ± 0.46. Besides, the figures for the “Neurobehavioral score (0 to 4 points)” value in assay [2] (6 d after ischemia) and in assay [2] (7 d after ischemia) were 2 ± 0.31 and 1.67 ± 0.21, respectively.

On to `[2H]c1c(-c2ccc(N3CCCCC3)cc2)oc2c(O)c(O)ccc2c1=O` [Example 7, 3-deutero-7,8-dihydroxy-2-(4-(piperidin-1-yl)phenyl)-4H-chromen-4-one], for which the “Relative intensity of p-AKT/t-AKT protein” value in the assay on AKT signaling pathway (500 nM) came to 220.514 ± 3.476. Also, the “Relative intensity of p-TrkB/t-TrkB protein” value at TrkB receptor (500 nM) is on record as 218.156 ± 12.556. Also, the “Relative content of p-Akt protein (ELISA, ratio to blank control group)” value with Phospho-Akt S473 (500 nM) turned out to be 218.33±2.31%.

B1: BDNF: Brain-derived neurotrophic factor, positive control, purchased from Peprotech (protein, UniProt P23560 19-247, looked up)
Neurotrophic factor BDNF …: APMKEANIRGQGGLAYPGVRTHGTLESVNGPKAGSRGLTSLADTFEHVIEELLDEDQKVRPNEENNKDADLYTSRVMLSSQVPLEPPLLFLLEEYKNYLDAANMSMRVRRHSDPARRGELSVCDSISEWVTAADKKTAVDMSGGTVTVLEKVPVSKGQLKQYFYETKCNPMGYTKEGCRGIDKRHWNSQCRTTQSYVRALTMDSKKRIGWRFIRIDTSCVCTLTIKRGR
As for B1, in the assay on AKT signaling pathway (BDNF 10 ng/mL), the “Relative intensity of p-AKT/t-AKT protein” value is on record as 229.306 ± 3.912. Besides, in the assay with TrkB receptor (BDNF 10 ng/mL), the “Increase of relative intensity of p-TrkB compared with Vehicle group” value was found to be 2.74 times and the “Relative intensity of p-TrkB/t-TrkB protein” value came out at 274.260 ± 8.047. In addition, the “Relative content of p-Akt protein (ELISA, ratio to blank control group)” value with Phospho-Akt S473 (BDNF 10 ng/mL) came to 231%.
